Assay results as given in patent US7183061B2, “Method of expressing Heliothis ecdysone receptor fusion protein” (Syngenta Limited, priority 1996, dated 2007).

Legend:
[1] = system: glucocorticoid receptor transactivating and DNA binding domains fused to the ecdysone receptor hinge and ligand binding domains; details: mammalian cells; cited from earlier work
[2] = biological target: T1, glucocorticoid/Drosophila ecdysone chimeric receptor (UniProt P04150+P34021); test: Maize protoplast GUS reporter assay with pMF6GREcRS and p221.9GRE6; format: cell-based; details: maize protoplasts, reporter plus effector, concentration not given
T1 construct: expressed in transfected cells; host or cells: maize suspension-culture protoplasts
T1 sequence (P04150+P34021 with tags, fused parts or gaps): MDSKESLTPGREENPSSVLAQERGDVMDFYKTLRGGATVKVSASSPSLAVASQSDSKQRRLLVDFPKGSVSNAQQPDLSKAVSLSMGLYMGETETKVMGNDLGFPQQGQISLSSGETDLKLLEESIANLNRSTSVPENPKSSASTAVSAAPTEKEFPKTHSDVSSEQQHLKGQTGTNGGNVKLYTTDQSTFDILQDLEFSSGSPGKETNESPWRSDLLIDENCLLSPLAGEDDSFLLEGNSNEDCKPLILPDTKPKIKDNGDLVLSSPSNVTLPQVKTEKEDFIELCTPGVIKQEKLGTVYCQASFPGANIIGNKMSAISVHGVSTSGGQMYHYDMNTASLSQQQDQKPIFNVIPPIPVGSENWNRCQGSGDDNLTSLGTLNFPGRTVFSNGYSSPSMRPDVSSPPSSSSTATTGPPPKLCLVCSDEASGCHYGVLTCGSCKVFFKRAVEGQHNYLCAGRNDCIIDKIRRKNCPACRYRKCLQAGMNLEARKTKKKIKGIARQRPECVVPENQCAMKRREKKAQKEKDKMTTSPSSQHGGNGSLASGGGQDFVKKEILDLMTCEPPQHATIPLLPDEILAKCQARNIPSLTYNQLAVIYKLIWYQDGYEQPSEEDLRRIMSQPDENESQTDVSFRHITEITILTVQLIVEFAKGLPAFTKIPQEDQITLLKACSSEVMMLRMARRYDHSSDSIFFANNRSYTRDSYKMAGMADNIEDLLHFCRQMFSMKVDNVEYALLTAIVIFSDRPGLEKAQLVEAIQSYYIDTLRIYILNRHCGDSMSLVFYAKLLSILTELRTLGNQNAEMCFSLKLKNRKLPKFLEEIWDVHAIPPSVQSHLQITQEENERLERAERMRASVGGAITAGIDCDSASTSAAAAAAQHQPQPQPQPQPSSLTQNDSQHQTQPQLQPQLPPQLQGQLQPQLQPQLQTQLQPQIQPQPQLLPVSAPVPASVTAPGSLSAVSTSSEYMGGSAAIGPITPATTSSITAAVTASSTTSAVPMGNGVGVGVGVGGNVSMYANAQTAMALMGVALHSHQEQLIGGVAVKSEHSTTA

Row | SMILES | activity of chimeric receptor as homodimer [1] | chemical induced reporter gene activity / induced levels of expression [2]
1 | CC(C)(O)CC[C@@H](O)[C@](C)(O)[C@H]1CC[C@@]2(O)C3=CC(=O)[C@@H]4C[C@@H](O)[C@@H](O)C[C@]4(C)[C@H]3CC[C@]12C [20-hydroxyecdysone] | not responsive | 
2 | CC(C)(C)N(NC(=O)c1ccccc1)C(=O)c1ccccc1 [RH5849, 1,2-dibenzoyl, 1-tert-butyl hydrazide] |  | no chemical induced reporter gene activity
